Data on eight compounds can be found in patent publication US7563798B2, “Substituted pyrazolo[1,5-a]pyrimidines as protein kinase inhibitors” (Schering Corporation, priority 2002, dated 2009).

The target of this test is T1, Cyclin E/CDK2 (Homo sapiens, UniProt P24941).
T1 construct: made in house; host or cells: SF9 insect cells (baculovirus co-infection)
Briefly: Cyclin E/CDK2 in vitro kinase assay (33P-ATP, SPA beads). Type of test: biochemical.

Take `Cc1cc(Nc2cc(C3CCCNC3)nc3c(-c4cnn(C)c4)cnn23)sn1` (centres unmarked): the IC50 (in general, the point on the concentration scale where inhibition reaches its midpoint) is 46 µM.

On to `Cc1cc(Nc2cc(C3CCCNC3)nc3c(-c4cncs4)cnn23)sn1` (centres unmarked), for which half-maximal inhibition (IC50) required 3.3 µM.

For `Cc1cc(Nc2cc(C3CNCCS3)nc3c(-c4cnn(C)c4)cnn23)sn1` (centres unmarked), the IC50 was determined as 40 µM.

In turn, `Cc1cc(Nc2cc(C3CCCNC3)nc3c(Br)cnn23)sn1` (centres unmarked) registered an IC50 of 0.076 µM.

Regarding `Cc1cc(Nc2cc(C3CCCNC3)nc3c(-c4coc(C#N)c4)cnn23)sn1` (centres unmarked), it took 3.6 µM to reach half-maximal inhibition (IC50).

For `Cc1cc(Nc2cc(C3CCCNC3)nc3c(-c4coc(C=NO)c4)cnn23)sn1` (centres unmarked), the IC50 came out at 0.05 µM.

The compound `Cc1cc(Nc2cc(N3CC[C@@H](N)C3)nc3c(-c4cnn(C)c4)cnn23)sn1` showed an IC50 of 49 µM.

As for `Cc1cc(Nc2cc(N3CC(N)C3)nc3c(-c4cnn(C)c4)cnn23)sn1`, the half-maximal inhibitory concentration (IC50) is 6.7 µM.
